# Laboratory results as given in patent US9474790B2, “Stable, protracted GLP-1/glucagon receptor co-agonists for medical use” (Novo Nordisk A/S, priority 2013, dated 2016).
# Numbered stars: 1 amine (or outer) side, 2 acyl side, 3 side chain; on linkers, the order of the positions; unused ones are H or OH. Bridge positions count the residues as written; N and C are the ends. Square brackets hold non-standard residues; d marks the D form. Side chains are listed from the residue outwards. Peptide text beside a SMILES is read from it. I, II: the chains in the order shown. * marks the point of attachment. C18 diacid = O=C(O)CCCCCCCCCCCCCCCCC(=O)*; γGlu = O=C(O)[C@H](CCC(=O)[*:2])N[*:1]; Ac4c = NC1(C(=O)O)CCC1; AEEA = NCCOCCOCC(=O)O; Aib = CC(C)(N)C(=O)O
# Experiments:
# [1] = Thioflavin T (ThT) fibrillation assay for physical stability; assay type: physicochemical; conditions: 250 μM in 10 mM HEPES buffer, pH 7.5, 37° C., shaking 960 rpm
# In short: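 Peptide at 250 μM in 10 mM HEPES pH 7.5 with 1 μM ThT, at 37° C with 960 rpm orbital shaking. Fluorescence (ex 444/em 485 nm) read every 20 min after 10 min pre-incubation; sigmoidal fit gives lag time (t0−2τ) and kapp (1/τ). Recovery is RP-HPLC peptide in the centrifuged, 0.22 μm-filtered supernatant as % of initial.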
# human GLP-1 receptor = biological target: T1, human GLP-1 receptor (Homo sapiens, UniProt P43220); assay: GLP-1 receptor potency, CRE luciferase reporter gene assay in BHK cells; assay type: cell-based; conditions: BHK cells expressing human GLP-1 receptor, read-out: EC50 GLP-1R
# T1 construct: expressed in transfected cells; host or cells: BHK cells (parent BHKTS13), clone FCW467-12A/KZ10-1, with CRE luciferase
# T1 sequence (P43220 24-463): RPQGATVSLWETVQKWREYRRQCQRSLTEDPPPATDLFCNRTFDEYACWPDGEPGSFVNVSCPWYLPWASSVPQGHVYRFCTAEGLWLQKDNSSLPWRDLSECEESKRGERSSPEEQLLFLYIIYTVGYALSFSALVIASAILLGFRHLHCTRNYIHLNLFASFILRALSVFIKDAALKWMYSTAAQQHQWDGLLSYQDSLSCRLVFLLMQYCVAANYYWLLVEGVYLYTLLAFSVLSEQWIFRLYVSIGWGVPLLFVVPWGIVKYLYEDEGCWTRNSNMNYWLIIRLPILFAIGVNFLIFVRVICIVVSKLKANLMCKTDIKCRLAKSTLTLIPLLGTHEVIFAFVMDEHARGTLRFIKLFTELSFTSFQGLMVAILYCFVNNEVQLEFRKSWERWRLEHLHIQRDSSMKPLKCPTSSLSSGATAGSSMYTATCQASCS
# In short: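 BHK cells stably expressing human GLP-1 receptor with CRE-luciferase reporter, 5×10EE3 cells/well in phenol red-free DMEM with 10 mM Hepes, 2% ovalbumin, 0.2% Pluronic F-68. Compounds at final 1×10EE-6 to 1×10EE-13 M, 3 h at 37° C; steadylite luminescence; EC50 by four-parameter fit, in pM.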
THT assay Lag time (Ex. 76) [1] [h],EC50 (human GLP-1 receptor) [pM],Compound
45,5,"CC(C)C[C@H](NC(=O)[C@H](Cc1ccc(O)cc1)NC(=O)[C@H](CCCCN)NC(=O)[C@H](CO)NC(=O)[C@H](CC(C)C)NC(=O)[C@H](CC(=O)O)NC(=O)[C@H](CO)NC(=O)[C@@H](NC(=O)[C@H](Cc1ccccc1)NC(=O)[C@@H](NC(=O)CNC(=O)[C@H](CCC(N)=O)NC(=O)C(C)(C)NC(=O)[C@@H](N)Cc1c[nH]cn1)[C@@H](C)O)[C@@H](C)O)C(=O)N[C@@H](CC(=O)O)C(=O)N[C@@H](C)C(=O)N[C@@H](CCCNC(=N)N)C(=O)N[C@@H](CCCNC(=N)N)C(=O)N[C@@H](C)C(=O)N[C@@H](CCCNC(=N)N)C(=O)N[C@@H](CC(=O)O)C(=O)N[C@@H](Cc1ccccc1)C(=O)N[C@H](C(=O)N[C@@H](CCC(N)=O)C(=O)N[C@@H](Cc1c[nH]c2ccccc12)C(=O)N[C@@H](CC(C)C)C(=O)N[C@@H](CC(C)C)C(=O)N[C@@H](CO)C(=O)N[C@@H](CCCCNC(=O)CC[C@H](NC(=O)CC[C@H](NC(=O)COCCOCCNC(=O)COCCOCCNC(=O)CC[C@H](NC(=O)CCCCCCCCCCCCCCCCC(=O)O)C(=O)O)C(=O)O)C(=O)O)C(N)=O)C(C)C [Example 66, N^ε29-[(4S)-4-carboxy-4-[[(4S)-4-carboxy-4-[[2-[2-[2-[[2-[2-[2-[[(4S)-4-carboxy-4-(17-carboxyheptadecanoylamino)butanoyl]amino]ethoxy]ethoxy]acetyl]amino]ethoxy]ethoxy]acetyl]amino]butanoyl]amino]butanoyl]-[Aib2,Leu10,Ala16,Arg20,Leu27,Ser28,Lys29]-Glucagon amide] (H-H[Aib]QGTFTSDLSKYLDARRARDFVQWLLSK([γGlu-γGlu-AEEA-AEEA-γGlu-C18 diacid])-NH2; N-terminus assumed)"
45,14.7,"CC(C)C[C@H](NC(=O)[C@H](Cc1ccc(O)cc1)NC(=O)[C@H](CCCCN)NC(=O)[C@H](CO)NC(=O)[C@H](CC(C)C)NC(=O)[C@H](CC(=O)O)NC(=O)[C@H](CO)NC(=O)[C@@H](NC(=O)[C@H](Cc1ccccc1)NC(=O)[C@@H](NC(=O)CNC(=O)[C@H](Cc1c[nH]cn1)NC(=O)C(C)(C)NC(=O)[C@@H](N)Cc1c[nH]cn1)[C@@H](C)O)[C@@H](C)O)C(=O)N[C@@H](CCC(=O)O)C(=O)N[C@@H](CO)C(=O)N[C@@H](CCCCN)C(=O)N[C@@H](CCCNC(=N)N)C(=O)N[C@@H](C)C(=O)N[C@@H](CCCNC(=N)N)C(=O)N[C@@H](CCC(=O)O)C(=O)N[C@@H](Cc1ccccc1)C(=O)N[C@H](C(=O)N[C@@H](CCC(N)=O)C(=O)N[C@@H](Cc1c[nH]c2ccccc12)C(=O)N[C@@H](CC(C)C)C(=O)N[C@@H](CC(C)C)C(=O)N[C@@H](CCCCNC(=O)CC[C@H](NC(=O)CC[C@H](NC(=O)CC[C@H](NC(=O)CCCCCCCCCCCCCCCCC(=O)O)C(=O)O)C(=O)O)C(=O)O)C(=O)N[C@H](C(N)=O)[C@@H](C)O)C(C)C [Example 34, N^ε28-[(4S)-4-carboxy-4-[[(4S)-4-carboxy-4-[[(4S)-4-carboxy-4-(17-carboxyheptadecanoylamino)butanoyl]amino]butanoyl]amino]butanoyl]-[Aib2,His3,Leu10,Glu15,Lys17,Arg20,Glu21,Leu27,Lys28]-Glucagon amide] (H-H[Aib]HGTFTSDLSKYLESKRAREFVQWLLK([γGlu-γGlu-γGlu-C18 diacid])T-NH2; N-terminus assumed)"
45,3,"CC(C)C[C@H](NC(=O)[C@H](Cc1ccc(O)cc1)NC(=O)[C@H](CCCCN)NC(=O)[C@H](CO)NC(=O)[C@H](CC(C)C)NC(=O)[C@H](CC(=O)O)NC(=O)[C@H](CO)NC(=O)[C@@H](NC(=O)[C@H](Cc1ccccc1)NC(=O)[C@@H](NC(=O)CNC(=O)[C@H](Cc1c[nH]cn1)NC(=O)C1(NC(=O)[C@@H](N)Cc2c[nH]cn2)CCC1)[C@@H](C)O)[C@@H](C)O)C(=O)N[C@@H](CCC(=O)O)C(=O)N[C@@H](CO)C(=O)N[C@@H](CCCNC(=N)N)C(=O)N[C@@H](CCCNC(=N)N)C(=O)N[C@@H](C)C(=O)N[C@@H](CCC(N)=O)C(=O)N[C@@H](CC(=O)O)C(=O)N[C@@H](Cc1ccccc1)C(=O)N[C@H](C(=O)N[C@@H](CCC(N)=O)C(=O)N[C@@H](Cc1c[nH]c2ccccc12)C(=O)N[C@@H](CC(C)C)C(=O)N[C@@H](CC(C)C)C(=O)N[C@@H](CCCCNC(=O)CNC(=O)[C@H](CO)NC(=O)[C@H](CCC(=O)O)NC(=O)CNC(=O)[C@H](CO)NC(=O)CC[C@H](NC(=O)CC[C@H](NC(=O)CCCCCCCCCCCCCCCCC(=O)O)C(=O)O)C(=O)O)C(=O)N[C@H](C(N)=O)[C@@H](C)O)C(C)C [Example 35, N^ε28-[2-[[(2S)-2-[[(2S)-4-carboxy-2-[[2-[[(2S)-2-[[(4S)-4-carboxy-4-[[(4S)-4-carboxy-4-(17-carboxyheptadecanoylamino)butanoyl]amino]butanoyl]amino]-3-hydroxypropanoyl]amino]acetyl]amino]butanoyl]amino]-3-hydroxypropanoyl]amino]acetyl]-[Acb2,His3,Leu10,Glu15, Leu27,Lys28]-Glucagon amide] (I: H-H[Ac4c]HGTFTSDLSKYLESRRAQDFVQWLLKT-NH2 / II: {C18 diacid-γGlu-γGlu}-SGESG; amide I:28-II:C; N-terminus assumed)"
45,7,"CC(C)C[C@H](NC(=O)[C@H](Cc1ccc(O)cc1)NC(=O)[C@H](CCCCN)NC(=O)[C@H](CO)NC(=O)[C@H](CC(C)C)NC(=O)[C@H](CC(=O)O)NC(=O)[C@H](CO)NC(=O)[C@@H](NC(=O)[C@H](Cc1ccccc1)NC(=O)[C@@H](NC(=O)CNC(=O)[C@H](CCC(N)=O)NC(=O)C1(NC(=O)[C@@H](N)Cc2c[nH]cn2)CCC1)[C@@H](C)O)[C@@H](C)O)C(=O)N[C@@H](CCC(=O)O)C(=O)N[C@@H](CO)C(=O)N[C@@H](CCCCN)C(=O)N[C@@H](CCCNC(=N)N)C(=O)N[C@@H](C)C(=O)N[C@@H](CCCNC(=N)N)C(=O)N[C@@H](CCC(=O)O)C(=O)N[C@@H](Cc1ccccc1)C(=O)N[C@H](C(=O)N[C@@H](CCC(N)=O)C(=O)N[C@@H](Cc1c[nH]c2ccccc12)C(=O)N[C@@H](CC(C)C)C(=O)N[C@@H](CC(C)C)C(=O)N[C@@H](CCCCNC(=O)CC[C@H](NC(=O)CC[C@H](NC(=O)[C@H](CO)NC(=O)[C@H](CCC(=O)O)NC(=O)[C@H](CO)NC(=O)CC[C@H](NC(=O)CC[C@H](NC(=O)CCCCCCCCCCCCCCCCC(=O)O)C(=O)O)C(=O)O)C(=O)O)C(=O)O)C(=O)N[C@H](C(N)=O)[C@@H](C)O)C(C)C [Example 68, N^ε28-[(4S)-4-carboxy-4-[[(4S)-4-carboxy-4-[[(2S)-2-[[(2S)-4-carboxy-2-[[(2S)-2-[[(4S)-4-carboxy-4-[[(4S)-4-carboxy-4-(17-carboxyheptadecanoylamino)butanoyl]amino]butanoyl]amino]-3-hydroxypropanoyl]amino]butanoyl]amino]-3-hydroxypropanoyl]amino]butanoyl]amino]butanoyl]-[Acb2,Leu10,Glu15,Lys17,Arg20,Glu21,Leu27,Lys28]-Glucagon amide] (H-H[Ac4c]QGTFTSDLSKYLESKRAREFVQWLLK([γGlu-γGlu-Ser-Glu-Ser-γGlu-γGlu-C18 diacid])T-NH2; N-terminus assumed)"
